Measurements reported in patent publication US7122529B2, “Compounds that release nitric oxide at controlled rates upon photolysis” (The Johns Hopkins University, priority 2001, dated 2006).
Marks after values point to notes of the source that are not given here. One block for each compound: values may come before it.

Experiments:
Format in all cases: physicochemical
[1] = Rate of NO release upon photolysis compared with thermal decay of 1 and 20; details: for rate of photochemical release of NO versus thermal decomposition of 1 and 20: 10 seconds photolysis, Xenon arc lamp long-pass 324 nm filter, 10 mM phosphate and acetate buffers
Method: This example describes the general procedure for the determination of the rate of NO release from compounds 6 and 9 upon photolysis. Stock solutions of compounds 6 and 9 were prepared to be 100 μM in acetonitrile, and of these 15 μL aliquots were diluted into to […] of aqueous solutions at the appropriate pH (10 mM phosphate and acetate buffers). The probe was allowed to equilibrate in the sample solution before 10 seconds of photolysis using a Xenon arc lamp with a long-pass 324 nm filter. The rate of NO release was then monitored over the appropriate time span. For comparison, the thermal decay of both compounds 1 and 20 were recorded under the same conditions as those of the photochemical experiments.
As shown, this pH dependence follows the same pH dependence for the release from authentic samples of diazeniumdiolate 1.

[2] = Electrochemical quantification of NO / diazeniumdiolate released upon photolysis of O2-benzyl diazeniumdiolates
Method: Analysis of the above described organic products produced following photolysis of the compounds was studied in argon and oxygen-saturated 90%–99% aqueous acetonitrile. Quantification of NO released upon photolysis was performed electrochemically with an inNO Nitric Oxide Measuring System using an amiNO-2000 probe (Innovative Instruments Inc., Tampa, Fla.). The amiNO-2000 probe was calibrated using ascorbic acid/sodium nitrite before and after NO measurements were conducted. In order to differentiate NO production arising from diazeniumdiolate from non-diazeniumdiolate derived NO, the dependence of diazeniumdiolate decomposition rate on pH was utilized. […] Aqueous solutions at pH 11 of the compounds were irradiated and then analyzed for NO. Any NO detected under these conditions must arise from a non-diazeniumdiolate pathway. For all compounds examined the amount of NO formed from such a pathway was negligible. To liberate NO associated with the photoreleased diazeniumdiolate, solutions were acidified with 1.0 M H2SO4 to a pH of between 2–3. In each case, the yield of NO was determined from a series of measurements following photolysis to a range of percent conversions. […] NO yields determined from these experiment along with the observation that compound 1 dissociates to give 1.5 equivalents of NO were used to derive yields of photoreleased diazeniumdiolates from the compounds studied.
Since Path B is favored with the addition of strong π-donating meta substituents, the dihydroxybenzyl derivative of compound 3, n=0, Y=H, R1=R3=R5=H, R2=R4=OH (O^2-3,5-dihydroxybenzyl substituted diazeniumdiolate) was studied in further detail. Consistent with the expected large effect of oxyanionic meta substitution, when compound 3, n=0, Y=H, R1=R3=R5=H, R2=R4=OH is irradiated (Rayonet, 300 nm) in an aqueous solution of pH 11.2 (containing 1% acetonitrile) to 5–35% conversion, the amount of NO detected corresponded to a yield of photoreleased diazeniumdiolate compound 1 of approximately 92%. A comparison of selected results observed with O^2-substituted diazeniumdiolate derivatives having the backbone of compound 3 is shown in FIG. 1. After photolysis of the compound (t=0 sec) there is no nitric oxide production.

[3] = Quantum yields of photolysis of compounds 2 and 3 (actinometry)
[4] = Diazeniumdiolate / NO released upon photolysis of compounds 6 and 9 (electrochemical NO probe); details: 0.498 μM, 100% conversion; for % NO: Xenon arc lamp with long-pass 324 nm filter, NO liberated by acidification; for % Diazeniumdiolate: pH 12.2, Xenon arc lamp with long-pass 324 nm filter, derived with 1.5 / 1.8 eq NO
Method: This example describes a general procedure for the determination of diazeniumdiolate released upon photolysis of compounds 6 and 9. The amiNO-700 probe was calibrated using ascorbic acid/sodium nitrite before and after NO measurements were recorded. Calibration curves were prepared in order to relate current (detected by the instrument) with concentration of NO. Stock solutions of compounds 6 and 9 were prepared to be 100 μM in acetonitrile, and of these 15 μL aliquots were diluted into to 3 mL of a pH 12.2 aqueous solution. The resulting 0.498 μM solutions were photolyzed with a Xenon arc lamp and a long-pass 324 nm filter for lengths of time appropriate to reach 100% conversion (6–7 minutes for most compounds at this concentration). Under these basic conditions any diazeniumdiolate generated photochemically is stable, and neither sodium-1-(N,N-diethylamino)-1-diazen-1-ium-1,2-diolate (compound 1) or sodium-1-(piperidin-1-yl)-diazen-1-ium-1,2-diolate (compound 20) absorbs at wavelengths above 324 nm. No NO was measured electrochemically at this pH, indicating there are no photochemical paths that lead directly to NO. The NO associated with the photochemically generated diazeniumdiolate was liberated by the addition of 10 μL of 1.0 M sulfuric acid (final solution pH's were typically 2–3. Using the calibration curve and the fact that the amount of NO released upon thermal decomposition of compounds 1 and 20 was calculated to be 1.5 and 1.8 eq. respectively, the absolute percentage of diazeniumdiolate generated upon photolysis of compounds 6 and 9 was determined. FIG. 2 depicts the amount of nitric oxide produced upon photolysis from a selection of 1-methylnaphthyl and 2-methylnaphthyl-O^2-substituted diazeniumdiolates having a backbone of compounds 6 and 9.
Compounds 6 and 9 are soluble in 99% aqueous acetonitrile up to 20 μM and are thermally stable indefinitely at pH 4–11, 25° C. at this concentration. Analysis of the products following photolysis (Rayonet, 300 or 350 nm, Xenon arc lamp with a long-pass 324 nm filter) of compounds 6 and 9 in both argon- and oxygen-saturated 99% aqueous acetonitrile is summarized in Table 2 below. Quantification of NO released upon photolysis was performed electrochemically with an inNO Nitric Oxide Measuring System using an ami-700 probe (Innovative Instruments Inc., Tampa, Fla.).

[5] = Quantum yields of photolysis of compounds 6 and 9; details: ~20 μM in 90–95% aqueous acetonitrile, below 40% conversion
[6] = Lifespan of diazeniumdiolate 1 as a function of pH; details: room temperature
[7] = Absolute amount of NO released from thermal decomposition of diazeniumdiolates 1 and 20; details: 0.15–0.66 μM in aqueous solution pH 12.2, acidified with 1.0 M sulfuric acid
Method: Determination of the absolute amount of NO released from the thermal decomposition of sodium-1-(N,N-diethylamino)-diazen-1-ium-1,2-diolate compound 1, and sodium-1-(piperidin-1-yl)-diazen-1-ium-1,2-diolate compound 20.
Stock solutions of both compounds 1 and 20 were prepared to be 100 μM in aqueous solution at pH=12.2. A series of μL aliquots of the stock solution were diluted into 3 mL of aqueous solution at pH=12.2 resulting in an array of concentrations from 0.15–0.66 μM. The probe was allowed to equilibrate in the sample solutions before the addition of 10 μL of 1.0 M sulfuric acid. The final concentration of NO in solution after complete decomposition was determined by the calibration curve, and a linear plot of NO released vs. initial concentration was obtained. By this method it was determined that compounds 1 and 20 release 1.5 and 1.8 eq. of NO respectively.

[8] = H2O/CH3CN 99/1, photolysis 300 nm, based on percent reactant converted, NO measured and 1.5 eq NO per diazeniumdiolate 1, estimated error ±5%
[9] = solvent H2O/CH3CN 0/100, photolysis 254 nm
[10] = solvent H2O/CH3CN 0/100, photolysis 300 nm
[11] = solvent H2O/CH3CN 99/1, photolysis 254 nm
[12] = solvent H2O/CH3CN 99/1, photolysis 300 nm

Structure (SMILES): COc1cc2ccccc2cc1/C=C/CON=[N+]([O-])N1CCCCC1
- rate of photochemical release of NO versus thermal decomposition of 1 and 20 [1]: consistent with the known thermal decays

Structure (SMILES): CCN(CC)[N+]([O-])=NOCc1cccc(OC)c1 [3 (R2 = MeO, R4 = H), O^2-(3-methoxybenzyl)-1-(N,N-diethylamino)-diazen-1-ium-1,2-diolate]
- % Diazeniumdiolate [2, 8]: 6%

- Quantum Yield [3, 9]: 0.60
- Quantum Yield [3, 10]: 0.17
- Quantum Yield [3, 11]: 0.25
- Quantum Yield [3, 12]: 0.04
Structure (SMILES): CCN(CC)[N+]([O-])=NOCc1cccc(N(C)C)c1 [3 (R2 = NMe2, R4 = H), O^2-(3-dimethylaminobenzyl)-1-(N,N-diethylamino)-diazen-1-ium-1,2-diolate]
- % Diazeniumdiolate [2, 8]: 35%

- Quantum Yield [3, 9]: 0.35
- Quantum Yield [3, 11]: 0.17
Structure (SMILES): CCN(CC)[N+]([O-])=NOCc1cc(OC)cc(OC)c1 [3 (R2 = R4 = MeO), O^2-(3,5-dimethoxybenzyl)-1-(N,N-diethylamino)-diazen-1-ium-1,2-diolate]
- % Diazeniumdiolate [2, 8]: 10%

- Quantum Yield [3, 9]: 0.53
- Quantum Yield [3, 10]: 0.18
- Quantum Yield [3, 11]: 0.26
- Quantum Yield [3, 12]: 0.05
Structure (SMILES): CCN(CC)[N+]([O-])=NOCc1cc(N(C)C)cc(N(C)C)c1 [3 (R2 = R4 = NMe2), O^2-(3,5-bis-dimethylaminobenzyl)-1-(N,N-diethylamino)-diazen-1-ium-1,2-diolate]
- % Diazeniumdiolate [2, 8]: 47%

- Quantum Yield [3, 12]: 0.87
Structure (SMILES): CCN(CC)[N+]([O-])=NOCc1cc(O)cc(O)c1 [3 (R2 = R4 = OH), O^2-(3,5-dihydroxybenzyl)-1-(N,N-diethylamino)-diazen-1-ium-1,2-diolate]
- % Diazeniumdiolate ([2]; H2O/CH3CN 99/1, photolysis 300 nm at pH 11.2, 5–35% conversion): 92^d %

Structure (SMILES): CCN(CC)[N+]([O-])=NOCc1cccc2ccccc12 [6 (n = 0, Y = R1–R7 = H), O^2-(1-naphthylmethyl)-1-(N,N-diethylamino)-1-diazen-1-ium-1,2-diolate]
- % NO [4]: 1.5%
- % Diazeniumdiolate [4]: 1%
- Quantum Yield ([5]; 300 nm (rayonet reactor)): 0.01^a

Structure (SMILES): CCN(CC)[N+]([O-])=NOC/C=C/c1cccc2ccccc12 [6 (n = 1, Y = R1–R7 = H)]
- % NO [4]: 37.5%
- % Diazeniumdiolate [4]: 25%
- Quantum Yield ([5]; 300 nm (rayonet reactor)): 0.12^a

Structure (SMILES): CCN(CC)[N+]([O-])=NOCc1cc2ccccc2cc1OC [9 (n = 0, Y = R1, R3–R7 = H, R2 = OMe), O^2-(3-methoxy-2-naphthylmethyl)-1-(N,N-diethylamino)-diazen-1-ium-1,2-diolate]
- % NO [4]: 30%
- % Diazeniumdiolate [4]: 20%
- % Diazeniumdiolate ([4]; listed as 9 (where n=0, Y=R1, R3–R7=H, R2=OMe, X=diethylamino)): 50%
- Quantum Yield ([5]; 300 nm (rayonet reactor)): 0.02^a

Structure (SMILES): CCN(CC)/[N+]([O-])=N/[O-].[Na+] [Compound 1, sodium-1-(N,N-diethylamino)-diazen-1-ium-1,2-diolate]
- lifespan ([6]; pH 3): several seconds
- lifespan ([6]; pH 11): several hours
- NO released upon thermal decomposition [7]: 1.5 eq.
- rate of release of nitric oxide from photochemically generated diazeniumdiolate ([1]; FIG. 5, varied pH): pH dependent

Structure (SMILES): [Na+].[O-]/N=[N+](\[O-])N1CCCCC1 [Compound 20, sodium-1-(piperidin-1-yl)-diazen-1-ium-1,2-diolate]
- NO released upon thermal decomposition [7]: 1.8 eq.

Structure (SMILES): CCN(CC)[N+]([O-])=NOC/C=C/c1cc2ccccc2cc1OC [O^2-(3-(3-methoxy-2-naphthyl)-E-2-propenyl)-1-(N,N-diethylamino)-diazen-1-ium-1,2-diolate]
- % Diazeniumdiolate [4]: 50%
- rate of photochemical release of NO versus thermal decomposition of 1 and 20 [1]: consistent with the known thermal decays

Structure (SMILES): CCN(CC)[N+]([O-])=NOC/C=C/c1cccc2c(OC)ccc(OC)c12 [O^2-(3-(5,8-dimethoxy-1-naphthyl)-E-2-propenyl)-1-(N,N-diethylamino)-diazenen-1-ium-1,2-diolate]
- % NO [4]: 143%
- % Diazeniumdiolate [4]: 95%
- Quantum Yield ([5]; 355 nm (ND:YAG laser)): 0.66^b

Structure (SMILES): CCN(CC)[N+]([O-])=NOCc1cccc2c(OC)ccc(OC)c12 [O^2-(5,8-dimethoxy-1-naphthylmethyl)-1-(N,N-diethylamino)-diazen-1-ium-1,2-diolate]
- % NO [4]: 60%
- % Diazeniumdiolate [4]: 40%
- Quantum Yield ([5]; 355 nm (ND:YAG laser)): 0.12^b

Structure (SMILES): CCN(CC)[N+]([O-])=NOCc1ccc2c(OC)ccc(OC)c2c1 [O^2-(5,8-dimethoxy-2-naphthylmethyl)-1-(N,N-diethylamino)-diazen-1-ium-1,2-diolate]
- % NO [4]: 51%
- % Diazeniumdiolate [4]: 34%
- Quantum Yield ([5]; 355 nm (ND:YAG laser)): 0.05^b
